One block for each molecule: values may come before it.
System: 233499-124-R-J3-PDC complex spheroid growth
Assay: Anticancer human tumor 233499-124-R-J3-PDC patient-derived colon adenocarcinoma cell line growth inhibition [AhR]
Details: for IC50: curve of first compound; for viability, T/C: stronger effect = lower value
Summary of the method: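 Agents were dosed in half-log steps down from roughly clinical Cmax, or from 10 microM where Cmax was unknown, alone and with AhR antagonists. Read-out: percent test/control growth of tumor spheroids containing HUVEC and MSC stromal cells.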

[1] = second compound 0.1 µM, first compound 0.0316 µM
[2] = second compound 0.1 µM, first compound 0.1 µM
[3] = second compound 0.1 µM, first compound 0.316 µM
[4] = second compound 0.1 µM, first compound 1 µM
[5] = second compound 0.316 µM, first compound 0.0316 µM
[6] = second compound 0.316 µM, first compound 0.1 µM
[7] = second compound 0.316 µM, first compound 0.316 µM
[8] = second compound 0.316 µM, first compound 1 µM
[9] = second compound 1 µM, first compound 0.0316 µM
[10] = second compound 1 µM, first compound 0.1 µM
[11] = second compound 1 µM, first compound 0.316 µM
[12] = second compound 1 µM, first compound 1 µM
[13] = second compound 3.16 µM, first compound 0.0316 µM
[14] = second compound 3.16 µM, first compound 0.1 µM
[15] = second compound 3.16 µM, first compound 0.316 µM
[16] = second compound 3.16 µM, first compound 1 µM
[17] = second compound 10 µM, first compound 0.0316 µM
[18] = second compound 10 µM, first compound 0.1 µM
[19] = second compound 10 µM, first compound 0.316 µM
[20] = second compound 10 µM, first compound 1 µM
[21] = second compound 0.1 µM, first compound 3.16 µM
[22] = second compound 0.1 µM, first compound 10 µM
[23] = second compound 0.316 µM, first compound 3.16 µM
[24] = second compound 0.316 µM, first compound 10 µM
[25] = second compound 1 µM, first compound 3.16 µM
[26] = second compound 1 µM, first compound 10 µM
[27] = second compound 3.16 µM, first compound 3.16 µM
[28] = second compound 3.16 µM, first compound 10 µM
[29] = second compound 10 µM, first compound 3.16 µM
[30] = second compound 10 µM, first compound 10 µM
[31] = second compound 0.1 µM, first compound 0.00949 µM
[32] = second compound 0.1 µM, first compound 0.03 µM
[33] = second compound 0.1 µM, first compound 0.0949 µM
[34] = second compound 0.1 µM, first compound 0.3 µM
[35] = second compound 0.316 µM, first compound 0.00949 µM
[36] = second compound 0.316 µM, first compound 0.03 µM
[37] = second compound 0.316 µM, first compound 0.0949 µM
[38] = second compound 0.316 µM, first compound 0.3 µM
[39] = second compound 1 µM, first compound 0.00949 µM
[40] = second compound 1 µM, first compound 0.03 µM
[41] = second compound 1 µM, first compound 0.0949 µM
[42] = second compound 1 µM, first compound 0.3 µM
[43] = second compound 3.16 µM, first compound 0.00949 µM
[44] = second compound 3.16 µM, first compound 0.03 µM
[45] = second compound 3.16 µM, first compound 0.0949 µM
[46] = second compound 3.16 µM, first compound 0.3 µM
[47] = second compound 10 µM, first compound 0.00949 µM
[48] = second compound 10 µM, first compound 0.03 µM
[49] = second compound 10 µM, first compound 0.0949 µM
[50] = second compound 10 µM, first compound 0.3 µM
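Also: spheroids exposed to agents for seven days before reading.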

SMILES: COc1ccc([C@@H](O)c2cc(-c3ncnc4cc(N5CCOCC5)ccc34)c(F)cc2Cl)nn1 + Cc1cncc(-c2nc(NCCc3c[nH]c4ccccc34)c3ncn(C(C)C)c3n2)c1
IC50 (second compound 0.1 µM): > 10000 nM | IC50 (second compound 0.316 µM): > 10000 nM | IC50 (second compound 1 µM): > 10000 nM | IC50 (second compound 3.16 µM): > 10000 nM | IC50 (second compound 10 µM): < 31.6 nM | viability, T/C [1]: 87.6% | viability, T/C [2]: 82.5% | viability, T/C [3]: 84.5% | viability, T/C [4]: 90.5% | viability, T/C [21]: 70.3% | viability, T/C [22]: 64.1% | viability, T/C [5]: 95.3% | viability, T/C [6]: 77.3% | viability, T/C [7]: 79.8% | viability, T/C [8]: 64.5% | viability, T/C [23]: 70.4% | viability, T/C [24]: 67.7% | viability, T/C [9]: 75.7% | viability, T/C [10]: 73.3% | viability, T/C [11]: 65.7% | viability, T/C [12]: 66.4% | viability, T/C [25]: 60.8% | viability, T/C [26]: 67.5% | viability, T/C [13]: 74.2% | viability, T/C [14]: 72.7% | viability, T/C [15]: 68.1% | viability, T/C [16]: 69% | viability, T/C [27]: 61.4% | viability, T/C [28]: 71.7% | viability, T/C [17]: 1.87% | viability, T/C [18]: 1.89% | viability, T/C [19]: 4.9% | viability, T/C [20]: 2.28% | viability, T/C [29]: 1.45% | viability, T/C [30]: 4.49%

SMILES: Nc1ncn(C2CC(O)C(CO)S2)c(=O)n1 (stereo not given) + Cc1cncc(-c2nc(NCCc3c[nH]c4ccccc34)c3ncn(C(C)C)c3n2)c1
IC50 (second compound 0.1 µM): > 300 nM | IC50 (second compound 0.316 µM): > 300 nM | IC50 (second compound 1 µM): > 300 nM | IC50 (second compound 3.16 µM): > 300 nM | IC50 (second compound 10 µM): < 0.949 nM | viability, T/C (second compound 0.1 µM, first compound 0.000949 µM): 89.6% | viability, T/C (second compound 0.1 µM, first compound 0.003 µM): 96.5% | viability, T/C [31]: 89.8% | viability, T/C [32]: 93.9% | viability, T/C [33]: 103% | viability, T/C [34]: 103% | viability, T/C (second compound 0.316 µM, first compound 0.000949 µM): 72.9% | viability, T/C (second compound 0.316 µM, first compound 0.003 µM): 83% | viability, T/C [35]: 86.9% | viability, T/C [36]: 89.6% | viability, T/C [37]: 96.9% | viability, T/C [38]: 97.1% | viability, T/C (second compound 1 µM, first compound 0.000949 µM): 77.3% | viability, T/C (second compound 1 µM, first compound 0.003 µM): 66.2% | viability, T/C [39]: 84.6% | viability, T/C [40]: 85.6% | viability, T/C [41]: 89.1% | viability, T/C [42]: 83.4% | viability, T/C (second compound 3.16 µM, first compound 0.000949 µM): 101% | viability, T/C (second compound 3.16 µM, first compound 0.003 µM): 94.3% | viability, T/C [43]: 97.1% | viability, T/C [44]: 103% | viability, T/C [45]: 104% | viability, T/C [46]: 99.4% | viability, T/C (second compound 10 µM, first compound 0.000949 µM): 8.85% | viability, T/C (second compound 10 µM, first compound 0.003 µM): 8.14% | viability, T/C [47]: 14.4% | viability, T/C [48]: 16.2% | viability, T/C [49]: 20.1% | viability, T/C [50]: 26.1%

SMILES: O=C(C=Cn1cnc(-c2cc(C(F)(F)F)cc(C(F)(F)F)c2)n1)NNc1cnccn1 + Cc1cncc(-c2nc(NCCc3c[nH]c4ccccc34)c3ncn(C(C)C)c3n2)c1
IC50 (second compound 0.1 µM): > 3000 nM | IC50 (second compound 0.316 µM): > 3000 nM | IC50 (second compound 1 µM): > 3000 nM | IC50 (second compound 3.16 µM): > 3000 nM | IC50 (second compound 10 µM): < 9.49 nM | viability, T/C [31]: 99.6% | viability, T/C [32]: 108% | viability, T/C [33]: 102% | viability, T/C [34]: 89.3% | viability, T/C (second compound 0.1 µM, first compound 0.949 µM): 100% | viability, T/C (second compound 0.1 µM, first compound 3 µM): 68.2% | viability, T/C [35]: 98.5% | viability, T/C [36]: 94.9% | viability, T/C [37]: 95.7% | viability, T/C [38]: 106% | viability, T/C (second compound 0.316 µM, first compound 0.949 µM): 53.5% | viability, T/C (second compound 0.316 µM, first compound 3 µM): 54% | viability, T/C [39]: 88.5% | viability, T/C [40]: 80.9% | viability, T/C [41]: 99.1% | viability, T/C [42]: 96.3% | viability, T/C (second compound 1 µM, first compound 0.949 µM): 74% | viability, T/C (second compound 1 µM, first compound 3 µM): 58.3% | viability, T/C [43]: 76.3% | viability, T/C [44]: 81.6% | viability, T/C [45]: 93.2% | viability, T/C [46]: 87% | viability, T/C (second compound 3.16 µM, first compound 0.949 µM): 60.7% | viability, T/C (second compound 3.16 µM, first compound 3 µM): 59.6% | viability, T/C [47]: 21.2% | viability, T/C [48]: 35.3% | viability, T/C [49]: 30.8% | viability, T/C [50]: 22% | viability, T/C (second compound 10 µM, first compound 0.949 µM): 28.9% | viability, T/C (second compound 10 µM, first compound 3 µM): 25.1%

Further lines, with some results ahead:

IC50 (second compound 0.1 µM): 546 nM | IC50 (second compound 0.316 µM): 525 nM | IC50 (second compound 1 µM): > 1000 nM | IC50 (second compound 3.16 µM): 293 nM | IC50 (second compound 10 µM): < 3.16 nM
SMILES: CC1COCCN1c1cc(-c2ccnn2C)c2ccnc(-c3ccn[nH]3)c2n1 (stereo not given) + Cc1cncc(-c2nc(NCCc3c[nH]c4ccccc34)c3ncn(C(C)C)c3n2)c1
viability, T/C (second compound 0.1 µM, first compound 0.00316 µM): 106% | viability, T/C (second compound 0.1 µM, first compound 0.01 µM): 89.7% | viability, T/C [1]: 102% | viability, T/C [2]: 74.6% | viability, T/C [3]: 62.6% | viability, T/C [4]: 37.8% | viability, T/C (second compound 0.316 µM, first compound 0.00316 µM): 85.3% | viability, T/C (second compound 0.316 µM, first compound 0.01 µM): 92.6% | viability, T/C [5]: 76.2% | viability, T/C [6]: 81.1% | viability, T/C [7]: 60.2% | viability, T/C [8]: 35.8% | viability, T/C (second compound 1 µM, first compound 0.00316 µM): 66.5% | viability, T/C (second compound 1 µM, first compound 0.01 µM): 63% | viability, T/C [9]: 69.3% | viability, T/C [10]: 72.9% | viability, T/C [11]: 53.5% | viability, T/C [12]: 50.2% | viability, T/C (second compound 3.16 µM, first compound 0.00316 µM): 66.7% | viability, T/C (second compound 3.16 µM, first compound 0.01 µM): 74.1% | viability, T/C [13]: 73.1% | viability, T/C [14]: 63.8% | viability, T/C [15]: 49.4% | viability, T/C [16]: 40.2% | viability, T/C (second compound 10 µM, first compound 0.00316 µM): 3.13% | viability, T/C (second compound 10 µM, first compound 0.01 µM): 3.32% | viability, T/C [17]: 3.34% | viability, T/C [18]: 4.58% | viability, T/C [19]: 3.11% | viability, T/C [20]: 5.96%

IC50 (second compound 0.1 µM): > 10000 nM | IC50 (second compound 0.316 µM): > 10000 nM | IC50 (second compound 1 µM): > 10000 nM | IC50 (second compound 3.16 µM): > 10000 nM | IC50 (second compound 10 µM): < 31.6 nM
SMILES: CC1COCCN1c1cc(C2(S(C)(=N)=O)CC2)nc(-c2ccnc3[nH]ccc23)n1 (stereo not given) + Cc1cncc(-c2nc(NCCc3c[nH]c4ccccc34)c3ncn(C(C)C)c3n2)c1
viability, T/C [1]: 99% | viability, T/C [2]: 90.3% | viability, T/C [3]: 95.1% | viability, T/C [4]: 95.1% | viability, T/C [21]: 93% | viability, T/C [22]: 81.2% | viability, T/C [5]: 80.7% | viability, T/C [6]: 71% | viability, T/C [7]: 61.6% | viability, T/C [8]: 91.2% | viability, T/C [23]: 92.7% | viability, T/C [24]: 78.1% | viability, T/C [9]: 73.9% | viability, T/C [10]: 70.1% | viability, T/C [11]: 78.7% | viability, T/C [12]: 77.2% | viability, T/C [25]: 63.3% | viability, T/C [26]: 64.7% | viability, T/C [13]: 81.8% | viability, T/C [14]: 76% | viability, T/C [15]: 81.8% | viability, T/C [16]: 83.1% | viability, T/C [27]: 71.3% | viability, T/C [28]: 59.7% | viability, T/C [17]: 11.2% | viability, T/C [18]: 14.3% | viability, T/C [19]: 20% | viability, T/C [20]: 15.1% | viability, T/C [29]: 14% | viability, T/C [30]: 11.1%
